Read-outs that look alike come from different tables or passages of the source.
Legend:
[1] = tested on: NO production in LPS-treated RAW 264.7 cells; assay: Inhibition of NO production (Griess reaction) in LPS-treated RAW 264.7 macrophages; format: cell-based, mouse
Protocol: (§1) Mouse macrophage cell line RAW 264.7 was cultured in DMEM medium (cat. #21885-025, Gibco) supplemented with 10% heat inactivated fetal bovine serum (cat. #10270-106, Gibco) and 1% penicillin-streptomycin (cat. #15070-063, Gibco). Cells were cultured in 37° C. and 5% CO2. Each compound was diluted in Carbowax™ 400+10% ethanol (cat. #1.00983, Sigma), used also as control solvent. Final concentration in culture was 0.1% v/v carbowax and 0.01% v/v ethanol. RAW 264.7 macrophages were activated using 100 ng/mL lipopolysaccharide (LPS) (L2630, Sigma). In IC50 determination experiments, macrophages were pre-treated for 1 h with the respective compound prior to LPS stimulation.
30×104 RAW 264.7 mouse macrophages were plated in 24-well plates over-night with 0.5 mL complete medium. Cells were pretreated for 1 h with the respected compound concentration and then stimulated with 100 ng/mL LPS (L2630, Sigma) for 48 h. The amount of nitrite, an oxidative product of NO, was measured in culture supernatant of each sample using the Griess reaction. 100 μL of supernatant was mixed with 100 μl of sulfanilamide solution (1% sulfanilamide in 5% H3PO4) and incubated for 5 min at room temperature. Then, 100 μL of NED solution (0.1% N-1-naphtylethylenediamine dihydrochlorite in H2O) was added and the absorbance was measured in an automated microplate reader (Infinate 200 PRO, Tecan) at 540 nm. Nitrite concentration was calculated using a sodium nitrite standard curve. All incubations were performed in the dark.
(§2) All data are presented as mean±SEM and as percentage in case of IC50 evaluation. Statistical analysis was performed using Graphpad Prism 7.0. D'Agostino & Pearson, Shapiro Wilk and KS tests were used to evaluate normality. In case of normality, one-way ANOVA was performed, whereas in all other cases the non-parametric Kruskal-Wallis test was used. Differences with a P value <0.05 are considered significant (*indicates P<0.05, **indicates P<0.01, ***indicates P<0.001).

RAW 264.7 macrophages = assay: MTT cytotoxicity / proliferation assay in RAW 264.7 macrophages; format: cell-based, mouse; details: for Significant cytotoxicity at concentrations above: RAW 264.7, values given in nM
Protocol: as §1
3.5×103 RAW 264.7 mouse macrophages were seeded in 96-well plate and cultured overnight. Cells were subsequently treated with the respective compound concentration and incubated for 24, 48 and 72 h. Number of cells was measured prior to treatment and used as normalisation control. Thiazolyl Blue Tetrazolium Bromide (MTT) (A2231.001, Applichem) was added to the cells in a final concentration of 0.5 mg/mL and then cells were incubated at 37° C. and 5% CO2 for 4 h. The supernatant was discarded and cells were lysed with 2-propanol (33539, Honeywell) with 0.4% HCl (30721, Sigma). The absorbance of each sample was measured in an automated microplate reader (Infinite 200 PRO, Tecan) at 600 nm. The average OD of each treated sample was normalized to the OD of the control sample and statistical analysis was performed using Graphpad Prism 7.0.
as §2

[2] = Mus musculus, RAW264.7, LPS (100 ng/mL)-treated RAW 264.7, 1 h pre-treatment, 48 h, vs Carbowax 400 control, mean ± SEM, read-out: IC50 Inhibition of NO production
[3] = Mus musculus, RAW264.7, LPS-treated RAW 264.7, values given in nM, read-out: IC50 for inhibition of NO production (anti-inflammatory activity)
[4] = MTT, RAW 264.7, 72 h of treatment, concentration above which cytotoxic

SMILES | IC50 [1, 2] | IC50 [1, 3] | Cytotoxicity (at 72 h) (RAW 264.7 macrophages; [4]) | Significant cytotoxicity at concentrations above (RAW 264.7 macrophages; MTT) | other results
CC[C@@H]1O[C@@H]2C[C@H]3O[C@H]3C[C@H](C=C=CBr)O[C@@H]2C[C@H]1Br [Compound a1, Thuwalallene A] | – | – | – | – | IC50 ([1]; LPS (100 ng/mL)-treated RAW 264.7, 1 h pre-treatment, 48 h, vs Carbowax 400 control, mean ± SEM, read-out: IC50 Inhibition of NO production): 26000 nM
CC[C@@H]1O[C@@H]2C/C=C\C[C@H](C=C=CBr)O[C@@H]2CC1Br (stereo partly shown) [Compound a3, Thuwalallene C] | 4180 nM | – | – | – | –
C#C/C=C\C[C@@H]1O[C@@H]2C[C@@H](Br)[C@H](CC)O[C@@H]2C[C@@H]1Br [Compound a4, Thuwalenyne A] | – | – | – | – | Anti-inflammatory activity (in words) ([1]; LPS-treated RAW 264.7, all concentrations tested): did not exhibit anti-inflammatory activity; Cytotoxicity (in words) (RAW 264.7 macrophages): did not exhibit anti-inflammatory activity or cytotoxicity; Cytotoxicity (at 72 h) (RAW 264.7 macrophages; mouse, 72 h): >62.5 µM
CC(C)(O)C1CC[C@](C)([C@@H](O)CC[C@](C)(O)[C@H]2CC[C@H]3O[C@@H]([C@]4(C)CC[C@@H](Br)C(C)(C)O4)CC[C@]3(C)O2)O1 (stereo partly shown) [Compound a10, thyrsiferol] | 4.39 nM | 4.39 nM | >0.1 µM | above 100 nM | –
CC(=O)OC(C)(C)C1CC[C@](C)([C@@H](O)CC[C@](C)(O)[C@H]2CC[C@H]3O[C@@H]([C@]4(C)CC[C@@H](Br)C(C)(C)O4)CC[C@]3(C)O2)O1 (stereo partly shown) [a11, 23-acetyl-thyrsiferol] | 2.63 nM | 2.63 nM | >0.01 µM | above 10 nM | –

Reference: patent US20220112208A1, “COMPOUNDS WITH ANTIINFLAMMATORY ACTIVITY AND METHODS OF USE THEREOF” (King Abdullah University of Science and Technology, priority 2020, published 2022)
